Test results reported in patent publication US10633353B2, “Polymerizable compound, composition, polymer, optically anisotropic body, liquid crystal display element, and organic EL display” (DIC Corporation, priority 2014, dated 2020).

Test: Preservation stability of the coating liquid
Type: physicochemical
Settings: coating liquid stored for 2 months shielded from light at 0° C.; appearance and GPC
Protocol: The preservation stability of the coating liquid was evaluated on a scale of A to E on the basis of the state of the coating liquid that was stored for 2 months under a condition where the coating liquid was shielded from light at 0° C.
A: No visual change in the appearance of the coating liquid was confirmed. A GPC analysis of the coating liquid confirmed that the change in the composition of the coating liquid was 1% or less.
B: No visual change in the appearance of the coating liquid was confirmed. A GPC analysis of the coating liquid confirmed that the change in the composition of the coating liquid was 2% or less.
C: A visual change in the appearance of the coating liquid was confirmed; a trace amount of insoluble components were confirmed, or a GPC analysis of the coating liquid confirmed that the change in the composition of the coating liquid was 3% or less.
D: A visual change in the appearance of the coating liquid was confirmed; insoluble components were confirmed. The ratio of the weight of the insoluble components to the total solid content was 5% or less.
E: A large amount of insoluble components were visually confirmed. The ratio of the weight of the insoluble components to the total solid content was 5% or more.

Row | SMILES | Preservation stability
1 | C=CC(=O)OCCCCCCOc1ccc(C(=O)Oc2ccc(OC(=O)c3ccc(OCCCCCCOC(=O)C=C)cc3)c3sc(-c4ccc([N+](=O)[O-])cc4)nc23)cc1 [r-1, reference compound] | D (A visual change in the appearance of the coating liquid was confirmed; insoluble components were confirmed. The ratio of the weight of the insoluble components to the total solid content was 5% or less.)
2 | C=CC(=O)OCCCCCCOc1ccc(C(=O)Oc2ccc(OCCCCCCOC(=O)C=C)cc2/C=N/Nc2nc3ccccc3s2)cc1 [1-e-70] | A (No visual change in the appearance of the coating liquid was confirmed. A GPC analysis of the coating liquid confirmed that the change in the composition of the coating liquid was 1% or less.)
3 | C=CC(=O)OCCCOC(=O)/C=C/c1ccc(CCC(=O)Oc2ccc(OC(=O)CCc3ccc(/C=C/C(=O)OCCCOC(=O)C=C)cc3)c(/C=N/Nc3nc4ccccc4s3)c2)cc1 [1-cj-63] | A (No visual change in the appearance of the coating liquid was confirmed. A GPC analysis of the coating liquid confirmed that the change in the composition of the coating liquid was 1% or less.)
4 | C=CC(=O)OCCCCCCOC1CCC(C(=O)Oc2ccc(OC(=O)C3CCC(OCCCCCCOC(=O)C=C)CC3)c(/C=N/Nc3nc4ccccc4s3)c2)CC1 (stereo not shown) [1-f-19] | A (No visual change in the appearance of the coating liquid was confirmed. A GPC analysis of the coating liquid confirmed that the change in the composition of the coating liquid was 1% or less.)
5 | C=CC(=O)OCCCCCCOc1ccc(/C=C/C(=O)Oc2ccc(OC(=O)/C=C/c3ccc(OCCCCCCOC(=O)C=C)cc3)c(/C=N/Nc3nc4ccccc4s3)c2)cc1 [1-c-43] | B (No visual change in the appearance of the coating liquid was confirmed. A GPC analysis of the coating liquid confirmed that the change in the composition of the coating liquid was 2% or less.)
6 | C=CC(=O)OCCCCCCOc1ccc(OC(=O)C2CCC(COc3ccc(OCC4CCC(C(=O)Oc5ccc(OCCCCCCOC(=O)C=C)cc5)CC4)c(/C=N/N(CCOC(=O)C=C)c4nc5ccccc5s4)c3)CC2)cc1 (stereo not shown) [1-cmn-93] | A (No visual change in the appearance of the coating liquid was confirmed. A GPC analysis of the coating liquid confirmed that the change in the composition of the coating liquid was 1% or less.)
7 | C=CC(=O)OCCCCCCOc1ccc(OC(=O)C2CCC(COc3ccc(OCC4CCC(C(=O)Oc5ccc(OCCCCCCOC(=O)C=C)cc5)CC4)c(/C=N/N(C(=O)C=C)c4nc5ccccc5s4)c3)CC2)cc1 (stereo not shown) [1-cmn-108] | A (No visual change in the appearance of the coating liquid was confirmed. A GPC analysis of the coating liquid confirmed that the change in the composition of the coating liquid was 1% or less.)
8 | C=CC(=O)OCCCOC(=O)/C=C/c1ccc(C(=O)Oc2ccc(OC(=O)c3ccc(/C=C/C(=O)OCCCOC(=O)C=C)cc3)c(/C=N/Nc3nc4ccccc4s3)c2)cc1 [1-j-61] | B (No visual change in the appearance of the coating liquid was confirmed. A GPC analysis of the coating liquid confirmed that the change in the composition of the coating liquid was 2% or less.)
9 | C=CC(=O)OCCCCCCOc1ccc(CCC(=O)Oc2ccc(OC(=O)CCc3ccc(OCCCCCCOC(=O)C=C)cc3)c(/C=N/Nc3nc4ccccc4s3)c2)cc1 [1-c-51] | A (No visual change in the appearance of the coating liquid was confirmed. A GPC analysis of the coating liquid confirmed that the change in the composition of the coating liquid was 1% or less.)
10 | C=CC(=O)OCCCOc1ccc(C(=O)OCCc2ccc(CCOC(=O)c3ccc(OCCCOC(=O)C=C)cc3)c(/C=N/Nc3nc4ccccc4s3)c2)cc1 [1-c-9] | A (No visual change in the appearance of the coating liquid was confirmed. A GPC analysis of the coating liquid confirmed that the change in the composition of the coating liquid was 1% or less.)
11 | C=CC(=O)OCCCCOC(=O)C1CCC(C(=O)OC2CCC(C(=O)Oc3ccc(OC(=O)C4CCC(OC(=O)C5CCC(C(=O)OCCCCOC(=O)C=C)CC5)CC4)c(/C=N/Nc4nc5ccc6ccccc6c5s4)c3)CC2)CC1 (stereo not shown) [1-f-22] | A (No visual change in the appearance of the coating liquid was confirmed. A GPC analysis of the coating liquid confirmed that the change in the composition of the coating liquid was 1% or less.)
12 | C=CC(=O)OCCCCCCOc1ccc(C(=O)OCCc2ccc(OC(=O)c3ccc(OCCCCCCOC(=O)C=C)cc3)c(/C=N/Nc3nc(-c4ccc5ccccc5c4)cs3)c2)cc1 [1-c-34] | B (No visual change in the appearance of the coating liquid was confirmed. A GPC analysis of the coating liquid confirmed that the change in the composition of the coating liquid was 2% or less.)
13 | C=CC(=O)OCCCCOC(=O)C1CCC(OC(=O)C2CCC(C(=O)Oc3ccc(OC(=O)C4CCC(C(=O)OC5CCC(C(=O)OCCCCOC(=O)C=C)CC5)CC4)c(/C=N/Nc4nc5ccccc5s4)c3)CC2)CC1 (stereo not shown) [1-f-95] | A (No visual change in the appearance of the coating liquid was confirmed. A GPC analysis of the coating liquid confirmed that the change in the composition of the coating liquid was 1% or less.)
14 | C=CC(=O)OCCCCOC(=O)C1CCC(C(=O)OC2CCC(C(=O)Oc3ccc(OC(=O)C4CCC(OC(=O)C5CCC(C(=O)OCCCCOC(=O)C=C)CC5)CC4)c(/C=N/N(CCC)c4nc5ccccc5s4)c3)CC2)CC1 (stereo not shown) [1-f-101] | A (No visual change in the appearance of the coating liquid was confirmed. A GPC analysis of the coating liquid confirmed that the change in the composition of the coating liquid was 1% or less.)
15 | C=CC(=O)OCCCCOC(=O)/C=C/c1ccc(C(=O)Oc2ccc(OC(=O)c3ccc(/C=C/C(=O)OCCCCOC(=O)C=C)cc3)c(/C=N/N(c3ccccc3)c3ccccc3)c2)cc1 [1-j-64] | B (No visual change in the appearance of the coating liquid was confirmed. A GPC analysis of the coating liquid confirmed that the change in the composition of the coating liquid was 2% or less.)
16 | C=CC(=O)OCCCCOc1ccc(C(=O)OCCc2ccc(CCOC(=O)c3ccc(OCCCCOC(=O)C=C)cc3)c(/C=N/Nc3nc4ccccc4s3)c2)cc1 [1-c-10] | A (No visual change in the appearance of the coating liquid was confirmed. A GPC analysis of the coating liquid confirmed that the change in the composition of the coating liquid was 1% or less.)
17 | C=CC(=O)OCCCCCCOc1ccc(C(=O)Oc2ccc(C(=O)OCCc3ccc(OC(=O)c4ccc(OC(=O)c5ccc(OCCCCCCOC(=O)C=C)cc5)cc4)c(/C=N/Nc4nc5ccccc5s4)c3)cc2)cc1 [1-ch-79] | A (No visual change in the appearance of the coating liquid was confirmed. A GPC analysis of the coating liquid confirmed that the change in the composition of the coating liquid was 1% or less.)
18 | C=CC(=O)OCCCCCCOc1ccc(C(=O)OCCc2ccc(OC(=O)c3ccc(OCCCCCCOC(=O)C=C)cc3)c(/C=N/Nc3ccc(C#Cc4ccccc4)cc3)c2)cc1 [1-c-31] | B (No visual change in the appearance of the coating liquid was confirmed. A GPC analysis of the coating liquid confirmed that the change in the composition of the coating liquid was 2% or less.)
19 | C=CC(=O)OCCCCCCOc1ccc(C(=O)OCCc2ccc(OC(=O)c3ccc(OCCCCCCOC(=O)C=C)cc3)c(/C=N/Nc3nc4ccc5ccccc5c4s3)c2)cc1 [1-c-33] | B (No visual change in the appearance of the coating liquid was confirmed. A GPC analysis of the coating liquid confirmed that the change in the composition of the coating liquid was 2% or less.)
20 | C=CC(=O)OCCCCCOc1ccc(C(=O)OCCc2ccc(CCOC(=O)c3ccc(OCCCCCOC(=O)C=C)cc3)c(/C=N/Nc3nc4ccccc4s3)c2)cc1 [1-c-11] | A (No visual change in the appearance of the coating liquid was confirmed. A GPC analysis of the coating liquid confirmed that the change in the composition of the coating liquid was 1% or less.)
21 | C=CC(=O)OCCCCCCOc1ccc(OC(=O)C2CCC(C(=O)Oc3ccc(OC(=O)C4CCC(C(=O)Oc5ccc(OCCCCCCOC(=O)C=C)cc5)CC4)c4c3SC(=C(C#N)C#N)S4)CC2)cc1 (stereo not shown) [r-2, reference compound] | C (A visual change in the appearance of the coating liquid was confirmed; a trace amount of insoluble components were confirmed, or a GPC analysis of the coating liquid confirmed that the change in the composition of the coating liquid was 3% or less.)
22 | C=CC(=O)OCCCCOc1ccc(C(=O)OCCc2ccc(OC(=O)c3ccc(OCCCCOC(=O)C=C)cc3)c(/C=N/Nc3nc4ccccc4s3)c2)cc1 [1-c-3] | A (No visual change in the appearance of the coating liquid was confirmed. A GPC analysis of the coating liquid confirmed that the change in the composition of the coating liquid was 1% or less.)
23 | C=CC(=O)OCCCOc1ccc(C(=O)Oc2ccc(C(=O)Oc3ccc(OCCCOC(=O)C=C)cc3/C=N/Nc3nc4ccccc4s3)cc2)cc1 [1-eh-71] | A (No visual change in the appearance of the coating liquid was confirmed. A GPC analysis of the coating liquid confirmed that the change in the composition of the coating liquid was 1% or less.)
24 | C=CC(=O)OCCCCCCOc1ccc(OC(=O)c2ccc(OC(=O)c3ccc4cc(OCCCCCCOC(=O)C=C)ccc4c3)cc2)c(/C=N/Nc2nc3ccccc3s2)c1 [1-eh-75] | A (No visual change in the appearance of the coating liquid was confirmed. A GPC analysis of the coating liquid confirmed that the change in the composition of the coating liquid was 1% or less.)
25 | C=CC(=O)OCCCOc1ccc(OC(=O)C2CCC(COc3ccc(OCC4CCC(C(=O)Oc5ccc(OCCCOC(=O)C=C)cc5)CC4)c(/C=N/N(CCOCCOC)c4nc5ccccc5s4)c3)CC2)cc1 (stereo not shown) [1-cmn-92] | A (No visual change in the appearance of the coating liquid was confirmed. A GPC analysis of the coating liquid confirmed that the change in the composition of the coating liquid was 1% or less.)
